Results reported in article PMC12720098, “Prolintane analogs as hybrid monoamine transporter ligands: Structural determinants and species differences” (The Journal of Biological Chemistry, 2025).
Read-outs that look alike come from different tables or passages of the source.

Experiments:
hDAT = target: T1, hDAT (Homo sapiens, UniProt Q01959); experiment: Uptake inhibition assay ([3H]DA) in transfected HEK293 cells; assay type: cell-based; settings: for DAT/SERT ratio: human isoform (h), 1/DAT IC50 / 1/SERT IC50
T1 construct: expressed in transfected cells
T1 sequence (Q01959 whole entry, canonical isoform): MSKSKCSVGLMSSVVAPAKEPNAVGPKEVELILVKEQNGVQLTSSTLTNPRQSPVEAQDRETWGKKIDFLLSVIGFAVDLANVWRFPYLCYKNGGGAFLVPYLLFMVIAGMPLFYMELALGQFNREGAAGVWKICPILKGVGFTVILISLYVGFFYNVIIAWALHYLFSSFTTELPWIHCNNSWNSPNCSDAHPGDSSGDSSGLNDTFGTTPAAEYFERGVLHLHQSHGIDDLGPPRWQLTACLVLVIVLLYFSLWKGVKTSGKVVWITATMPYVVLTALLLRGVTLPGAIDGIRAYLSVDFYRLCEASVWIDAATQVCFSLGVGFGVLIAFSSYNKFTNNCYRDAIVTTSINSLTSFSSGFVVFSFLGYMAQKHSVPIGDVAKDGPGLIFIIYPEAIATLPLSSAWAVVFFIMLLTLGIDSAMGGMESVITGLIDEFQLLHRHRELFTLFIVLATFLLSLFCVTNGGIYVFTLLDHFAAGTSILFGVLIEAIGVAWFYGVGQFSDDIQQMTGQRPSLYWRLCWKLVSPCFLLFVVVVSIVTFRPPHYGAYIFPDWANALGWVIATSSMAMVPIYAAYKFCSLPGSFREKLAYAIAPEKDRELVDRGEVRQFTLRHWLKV
Method: HEK293 cells stably expressing human monoamine transporters hSERT, hDAT or hNET were seeded into poly-D-lysine (PDL) coated 96-well plates with a density of approximately 36,000 cells per well 1 day prior to experiments. A day after seeding, the cell medium was replaced with 200 μl Krebs-HEPES-buffer (KHB; 120 mM NaCl, 3 mM KCl, 2 mM CaCl2·2H2O, 2 mM MgCl2·6H2O, 20 mM D-glucose, pH = 7.3). The test drugs were initially dissolved in Milli-Q H2O or dimethyl sulfoxide (DMSO) at a concentration of 10 to 100 mM. Then, cells were treated with the respective concentration of the test drug diluted in KHB for 5 min as a pre-incubation step. Subsequently, in the uptake step, the solution was replaced with 50 μl/well diluted drug solution and tritiated substrate (hDAT: 0.1 μM [^3H]DA; hNET: 0.02 μM [^3H]MPP^+; hSERT: 0.1 μM [^3H]5-HT) for 1 min (hDAT, hSERT) or 3 min (hNET). After incubation, cells were immediately washed with 200 μl KHB to stop uptake. Uptake was indirectly measured by quantifying beta emission with liquid scintillation counting (Wallac 1450 MicroBeta TriLux Liquid Scintillation Counter & Lumi; GMI). Therefore, 200 μl Ultima Gold XR scintillation cocktail (PerkinElmer, MA, USA) was added to each well.
Half-maximal inhibitory concentrations (IC50) were obtained from fitting a sigmoidal dose–response ( Y=Bottom+Top−Bottom/1+10^((LogIC50−X)·HillSlope) ) in GraphPad Prism 10.3.1 (GraphPad Software Inc.). Uptake inhibition data were evaluated by one-way ANOVA followed by Tukey's multiple comparisons test. Release data were analyzed using a two-way ANOVA (batch release) or a mixed-effects model with Geisser-Greenhouse correction (time-dependent traces) employing Šidák correction for comparing differences between compounds with or without the addition of monensin.

rSERT = rSERT (Rattus norvegicus, UniProt P31652); experiment: Uptake inhibition assay ([3H]5-HT) in rat brain synaptosomes; assay type: biochemical; parameters: As a means to evaluate transporter activity of prolintane analogs in native tissue preparation; from tissue; host or cells: rat brain synaptosomes (whole brain minus caudate and cerebellum)
Chain of rSERT (P31652 whole entry): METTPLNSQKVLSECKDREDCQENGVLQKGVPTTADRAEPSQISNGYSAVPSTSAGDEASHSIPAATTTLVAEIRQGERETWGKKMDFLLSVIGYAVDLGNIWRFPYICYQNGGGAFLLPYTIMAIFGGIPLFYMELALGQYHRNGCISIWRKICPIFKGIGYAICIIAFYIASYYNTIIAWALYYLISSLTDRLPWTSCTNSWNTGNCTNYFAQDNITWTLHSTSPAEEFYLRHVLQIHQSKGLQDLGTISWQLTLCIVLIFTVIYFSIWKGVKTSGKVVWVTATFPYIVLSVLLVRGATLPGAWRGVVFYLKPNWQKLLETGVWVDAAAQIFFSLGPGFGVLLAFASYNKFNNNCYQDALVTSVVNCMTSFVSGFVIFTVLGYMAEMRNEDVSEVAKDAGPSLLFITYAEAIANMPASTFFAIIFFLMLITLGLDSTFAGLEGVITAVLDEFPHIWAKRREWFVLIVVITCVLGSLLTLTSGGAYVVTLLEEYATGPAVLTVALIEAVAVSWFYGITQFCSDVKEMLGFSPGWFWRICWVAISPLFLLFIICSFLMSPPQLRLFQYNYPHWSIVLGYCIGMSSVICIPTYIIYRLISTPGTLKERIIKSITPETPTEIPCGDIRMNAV
Method: Rats were killed by CO2 narcosis and decapitated, then synaptosomes were prepared from brains using standard procedures. In brief, synaptosomes were prepared from caudate tissue for rat DAT (rDAT) assays, or from whole brain minus caudate and cerebellum for rat NET (rNET) and rat SERT (rSERT) assays. Brain tissue was homogenized in ice-cold 10% sucrose followed by centrifugation at 1000g for 10 min. The resulting supernatant containing crude synaptosomes was kept on ice until use in uptake or release procedures. Uptake inhibition and release assays were carried out as previously described ([62], [63]).
For uptake inhibition assays, 5 nM [^3H]dopamine, 10 nM [^3H]norepinephrine, or 5 nM [^3H]5-HT was used as the radiolabeled transmitter for rDAT, rNET, or rSERT, respectively. To optimize uptake for a single transporter, unlabeled blockers were included that prevented uptake of [^3H]transmitter by competing transporters: 50 nM GBR 12935 was added to NET and SERT assays to block DAT, 100 nM nomifensine was added to SERT assays to block NET. Uptake assays were initiated by adding 100 μl of tissue to 900 μl Krebs-phosphate buffer (126 mM NaCl, 2.4 mM KCl, 0.83 mM CaCl2, 0.8 mM MgCl2, 0.5 mM KH2PO4, 0.5 mM Na2SO4, 11.1 mM glucose, 0.05 mM pargyline, 1 mg/ml bovine serum albumin, and 1 mg/ml ascorbic acid, pH 7.4) containing test drug and [^3H]transmitter. Uptake assays were terminated by rapid vacuum filtration, and retained radioactivity was quantified with liquid scintillation counting.
Effects of test drugs on release and uptake inhibition were analyzed by nonlinear regression using GraphPad Prism 9 (GraphPad Scientific, San Diego, CA, USA). Concentration–response values for the uptake inhibition and release were fit to the equation, Y(x)=Ymin+Ymax−Ymin/1+10^((LogP50−LogX)·n) , where x is the concentration of the compound tested, Y(x) is the response measured, Ymax is the maximal response, P50 is either IC50 (the concentration that yields half-maximal uptake inhibition response) or EC50 (the concentration that yields half-maximal release response), and n is the Hill slope parameter.

mice = system: mice; parameters: method as in PMID 34896117; settings: moderate and high doses ref 2; cited from earlier work
hSERT = target: T2, hSERT (Homo sapiens, UniProt P31645); parameters: method as in PMID 30397775; settings: cited from earlier work
T2 construct: expressed in transfected cells
T2 sequence (P31645 whole entry): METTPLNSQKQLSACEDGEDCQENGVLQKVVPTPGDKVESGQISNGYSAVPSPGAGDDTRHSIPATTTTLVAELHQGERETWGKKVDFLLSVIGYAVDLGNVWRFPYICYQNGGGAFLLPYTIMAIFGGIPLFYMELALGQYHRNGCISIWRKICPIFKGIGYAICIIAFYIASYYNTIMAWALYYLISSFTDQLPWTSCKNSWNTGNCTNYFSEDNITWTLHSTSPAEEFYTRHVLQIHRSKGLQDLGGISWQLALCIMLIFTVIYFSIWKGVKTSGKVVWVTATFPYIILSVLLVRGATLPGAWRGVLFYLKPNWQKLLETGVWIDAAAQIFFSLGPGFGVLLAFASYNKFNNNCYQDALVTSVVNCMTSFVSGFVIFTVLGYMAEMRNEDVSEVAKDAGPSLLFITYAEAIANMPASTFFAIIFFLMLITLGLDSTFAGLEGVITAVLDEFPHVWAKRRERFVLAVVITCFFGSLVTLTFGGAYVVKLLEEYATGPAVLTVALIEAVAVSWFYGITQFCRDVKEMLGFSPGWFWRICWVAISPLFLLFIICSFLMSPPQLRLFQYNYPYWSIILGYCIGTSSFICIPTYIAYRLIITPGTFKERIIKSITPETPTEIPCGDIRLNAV

native HEK293 cells = experiment: Whole-cell patch-clamp control in native HEK293 cells without transfection; assay type: cell-based, human; settings: prolintane 30 µM, 5-HT 10 µM (Fig. S3)
Method: One day prior to recording, either native HEK293 cells or HEK293 cells stably expressing monoamine transporters were seeded at low density onto PDL-coated 35 mm dishes. Patch-clamp experiments were conducted at a holding potential of −60 mV, with substrate-induced currents recorded at room temperature (20–24 °C) using an […] amplifier and pClamp 11.2 software (MDS Analytical Technologies). During recordings, cells were continuously superfused via a DAD-12 perfusion system and an 8-tube manifold (ALA Scientific Instruments), delivering an external solution composed of 140 mM NaCl, 2.5 mM CaCl2, 3 mM KCl, 2 mM MgCl2, 20 mM glucose, and 10 mM HEPES, with pH adjusted to 7.3 using NaOH. The intracellular pipette solution, designed to mimic physiological ionic conditions, contained 133 mM potassium gluconate, 5.9 mM NaCl, 1 mM CaCl2, 0.7 mM MgCl2, 10 mM HEPES, and 10 mM EGTA, with pH set to 7.2 using KOH. Currents were filtered at 1 kHz and digitized at 10 kHz via a Digidata 1550 digitizer (MDS Analytical Technologies), followed by analysis in Clampfit 10.2 (Molecular Devices). Substance-induced currents were normalized to the current elicited by a saturating concentration of 5-HT (10 μM) of the same cell. Holding currents were subtracted, and a 50 Hz digital Gaussian low-pass filter was applied to the traces for further analysis.

SMILES | IC50 (hDAT) [nM] | DAT/SERT ratio (hDAT) | IC50 (rSERT) [nM] | IC50 (rSERT; read-out: [3H]5-HT uptake SERT IC50, rat isoform (r), rat brain synaptosomes, mean ± SD) [nM] | inhibitory potency at hDAT compared to pyrovalerone (hDAT; pyrovalerone value ref 53) | abuse-related behavioural effects (mice) | effects at hSERT, fold weaker than at hDAT and hNET (hSERT) | IC50 at rSERT, fold weaker than at rDAT and rNET (rSERT; rat brain synaptosomes) | current in native HEK293 cells without transfection (native HEK293 cells) | current in native HEK293 cells without transfection (native HEK293 cells; listed as prolintane)
CCCC(Cc1cccc(F)c1)N1CCCC1 (stereo not drawn) [3-Fluoroprolintane, 1-[1-(3-fluorophenyl)pentan-2-yl]pyrrolidine] | 64 ± 20 | 210 | 521 ± 116 | – | – | – | – | – | – | –
CCCC(Cc1ccccc1C)N1CCCC1 (stereo not drawn) [2-Methylprolintane, 1-[1-(2-methylphenyl)pentan-2-yl]pyrrolidine] | 185 ± 65 | 23 | – | 323 ± 280 | – | – | – | – | – | –
CCCC(Cc1cccc(C)c1)N1CCCC1 (stereo not drawn) [3-Methylprolintane, 1-[1-(3-methylphenyl)pentan-2-yl]pyrrolidine] | 56 ± 11 | 53 | 139 ± 14 | – | – | – | – | – | – | –
CCCC(Cc1ccccc1F)N1CCCC1 (stereo not drawn) [2-Fluoroprolintane, 1-[1-(2-fluorophenyl)pentan-2-yl]pyrrolidine] | 109 ± 19 | 323 | 2230 ± 152 | – | – | – | – | – | – | –
CCCC(Cc1ccc(F)cc1)N1CCCC1 (stereo not drawn) [4-Fluoroprolintane, 1-[1-(4-fluorophenyl)pentan-2-yl]pyrrolidine] | 109 ± 41 | 179 | 884 ± 78 | – | – | – | – | – | – | –
CCCC(Cc1ccc(C)cc1)N1CCCC1 (stereo not drawn) [4-Methylprolintane, 1-[1-(4-methylphenyl)pentan-2-yl]pyrrolidine] | 16 ± 2 | 159 | 72 ± 5 | – | four-fold greater | – | – | – | – | –
CCCC(Cc1ccccc1)N1CCCC1 (stereo not drawn) [Prolintane, 1-(1-phenylpentan-2-yl)pyrrolidine] | 43 ± 24 | 670 | 2320 ± 169 | – | – | rewarding and reinforcing effects | approximately 10 fold | about 50 fold | do not induce currents | no current could be recorded
